By half-life is commonly meant the time in which the quantity being followed falls by half. As a reminder, the AUC is concentration integrated over time. As usually defined, the Cmax is the peak of the concentration-time curve. Usually MRT stands for the average time that molecules of a dose stay in the body. In general, Tmax refers to the time at which the peak concentration occurs.

Like-named read-outs stand apart in the source and are kept apart here. Bounds are passed on as bounds.

Consider 7 compounds from patent US7999099B2, “Modified 5′-phosphonate azidothymidine—potential anti-viral preparations” (priority 2004, dated 2011).

One data set concerns GKV-4046 HIV-1. Description: Inhibition of HIV-1 replication in MT-4 cell culture (p24 accumulation, cell viability by MTT). The conditions noted are these: MT-4 cells. It counts as cell-based, type 1 human immunodeficiency virus. Here is the method:
Inhibition of HIV replication was studied by cultivating pre-infected lymphoid cells of MT-4 cell line in the presence of the investigational compounds in the concentration of 0.001-100 µg per 1 ml of culture medium during one passage, i.e. 4 days.
Inhibition of HIV replication in a sensitive cell culture is assessed by the reduction of p24 virus-specific protein accumulation (according to immunoenzyme assay) as well as by the increase of cell viability in the presence of the drug as compared to the control on the 4th day of cultivation using bromide 3-(4,5-dimethylthiasol-2-yl)-2,5-diphenuyltetrasolium (MTT).
The effect of the investigational compounds of HIV-1 replication in MT-4 cell culture was studied using a known method.
The therapeutic index, or the index of selectivity (IS), is calculated as the ratio of 50% toxic concentration of a compound to its 50% effective dose (the results are presented in table 1).

Data set [1] can be described thus: Pharmacokinetics of generated AZT in dog blood after oral administration. It counts as in vivo. Here is the method: A dog weighing 12 kg was orally given 250 mg of the investigational compound (mixed with curd). Blood samples (1 ml) were taken at defined intervals from the femoral vein. The samples were centrifuged (10 minutes at 2000 rpm) and the supernatant was separated. Oxetan (internal standard, 0.25 […]g) and methanol (0.75 ml) were added to aliquots of the supernatant (0.25 ml). The resulting mixture was centrifuged for 3 minutes at 5000 rpm. The supernatant was separated and evaporated in air flow at 40° C., water (1 ml) was added to the residue. Aliqutes (20[…]1) were analyzed by HPLC in Gynkotec chromatograph (Germany) using Ultrasphere ODC Beckman analytical column (USA). Eluent: 6% acetonitrile in 0.1% H3PO4 (pH 2.1) in the presence of 0.15% triethylamine; detection at […]max 265 nm at 30° C.

As for “5′-Aminocarbonylphosphonyl-3′-azido-3′-deoxythymidine [Ie]”, in the data set on GKV-4046 HIV-1, the “IS (index of selectivity, ratio of 50% toxic concentration to 50% effective dose)” value is listed as more than 3000.
Turning to “5′-Chloromethylphosphonyl-3′-azido-3′-deoxythymidine [Ia]”, in the data set on GKV-4046 HIV-1, the “IS (index of selectivity, ratio of 50% toxic concentration to 50% effective dose)” value is reported as more than 3000.
Same read-out and setting: next, “5′-Hydroxymethylphosphonyl-3′-azido-3′-deoxythymidine [Ic]”: more than 1600; “5′-Iodomethylphosphonyl-3′-azido-3′-deoxythymidine [Ib]”: more than 100.
As for “5′-Methoxymethylphosphonyl-3′-azido-3′-deoxythymidine”, the “IS (index of selectivity, ratio of 50% toxic concentration to 50% effective dose)” value in the data set on GKV-4046 HIV-1 is more than 100.
In the case of `Cc1cn([C@H]2C[C@H](N=[N+]=[N-])[C@@H](CO)O2)c(=O)[nH]c1=O` [AZT, 3′-azido-3′-deoxythymidine], in data set [1] (in vivo, of azidothymidine, oral, amount equivalent to 250 mg of AZT), the half-life was 5.2 h. In addition, the AUC in data set [1] (in vivo, of azidothymidine, oral, amount equivalent to 250 mg of AZT, read-out: AUC) is 58800 ng·h/mL. Also, the maximum concentration (Cmax) in data set [1] (in vivo, of azidothymidine, oral, amount equivalent to 250 mg of AZT, read-out: Cmax) is 9770 ng/mL. Besides, in data set [1] (in vivo, of azidothymidine, oral, amount equivalent to 250 mg of AZT, read-out: MRT), the MRT was determined as 7.5 h. In addition, the Tmax in data set [1] (in vivo, of azidothymidine, oral, amount equivalent to 250 mg of AZT, read-out: Tmax) was found to be 2.5 h. The CL in data set [1] (of azidothymidine, oral, amount equivalent to 250 mg of AZT) came out at 4.2 L/h.
`Cc1cn([C@H]2C[C@H](N=[N+]=[N-])[C@@H](CO[PH](=O)O)O2)c(=O)[nH]c1=O` [Nikavir, 5′-hydrohenphosphonate of 3′-azido-2′,3′-dideoxythymidine]: in data set [1] (in vivo, po, 250 mg), the AUC was 16600 ng·h/mL, the CL is 15.0 L/h, the Cmax was found to be 1890 ng/mL and the MRT came out at 10.4 h. Besides, in data set [1] (in vivo, po, 250 mg), the T1/2 stood at 7.2 h and the Tmax came out at 4.0 h. The “IS (index of selectivity, ratio of 50% toxic concentration to 50% effective dose)” value in the data set on GKV-4046 HIV-1 is 2015.
